A short description of series [1]: NC stability after freeze drying with cryoprotectant. In kind it is physicochemical. On the procedure:
In another exemplary method, NC stability after freeze drying was tested as a potential method for preserving NCs for long term storage and use including analyzing NC integrity and cargo retention for extended periods of time. In this example, mannitol (a sugar alcohol example, e.g., sorbitol and the like) was chosen as the cryoprotectant. W/O NCs were utilized for this experiment. Mannitol concentrations of 2.5% w/v, 5.0 w/v, and 10.0 w/v were tested to determine the optimal concentration (FIG. 13A). […] SEM images were taken before (FIG. 13B) and after (FIG. 13C) freeze drying to confirm DLS measurements. It was observed that the NC yield decreased after reconstitution which may be attributed to the mannitol crystallizing and imposing mechanical forces either breaking the NCs or forming aggregates. It is noted that mannitol can be removed, if needed or desired, from the NC formulations by centrifugation and washing in either water or PBS.

Series [2] concerns sBC clusters. Description: Selective delivery of PTM toxin to sBC clusters, live/dead cell quantification. In kind it is cell-based, human. Particulars: 24 hours, vs untreated control. The procedure:
Blank or pentamidine (PTM) (B-cell toxin) loaded NCs were left uncoated or coated with either an ENTPD3 antibody or BSA for up to about 168 hours. Untreated and 1 μM free PTM were utilized as additional controls. […] Although benzalkonium chloride (BKC) can be used for biological applications, it can be toxic to cells at high concentrations.
In further exemplary methods, the number of GFP positive and GFP negative dead cells were quantified as GFP correlates to insulin positive cells. For the dead sBC clusters, 76% at 24 hours (FIG. 20G) and 69% at 72 hours were GFP positive (FIG. 20H).

Take `OC[C@H]1O[C@@](CO)(O[C@H]2O[C@H](CO)[C@@H](O)[C@H](O)[C@H]2O)[C@@H](O)[C@@H]1O` [sucrose]: the “ability to replace mannitol as cryoprotectant in freeze drying of NCs” value in series [1] is recorded as “failed to stabilize the NCs”.

Take `N=C(N)c1ccc(OCCCCCOc2ccc(C(=N)N)cc2)cc1` [free PTM, pentamidine]: the “percentage of dead cells” value in series [2] is reported as “killed the majority of sBCs”.

As to `OC[C@H]1O[C@H](O[C@]2(CCl)O[C@H](CCl)[C@@H](O)[C@@H]2O)[C@H](O)[C@@H](O)[C@H]1Cl` [sucralose], in series [1], the “ability to replace mannitol as cryoprotectant in freeze drying of NCs” value is “failed to stabilize the NCs”.

Source of the values: patent US20250325493A1, “COMPOSITIONS AND METHODS FOR MAKING AND USING POLYMER-COATED NANOCAPSULES FOR TARGETED PHARMACEUTICAL AGENT DELIVERY” (The Regents of the University of Colorado, a body Corporate, priority 2022, published 2025).
